Measured values from patent publication US20240116922A1, “IMIDAZO[1,2-A]PYRIDINE DERIVATIVES AS IRAK4 INHIBITORS AND THEIR USE IN THE TREATMENT OF DISEASE” (BIOGEN MA INC., priority 2020, published 2024).
In brackets after ≈: the same amount, converted by molar mass. Where a name gives a salt, the structure may show the parent alone.

Legend:
IRAK4 = IRAK4 (Homo sapiens (Human), UniProt Q9NWZ3); assay: IRAK4 MSD biochemical assay (2-hour 1 mM ATP); conditions: 0.1 nM IRAK4, 1 mM ATP, 2 hour at room temperature
Sequence of IRAK4 (Q9NWZ3 whole entry): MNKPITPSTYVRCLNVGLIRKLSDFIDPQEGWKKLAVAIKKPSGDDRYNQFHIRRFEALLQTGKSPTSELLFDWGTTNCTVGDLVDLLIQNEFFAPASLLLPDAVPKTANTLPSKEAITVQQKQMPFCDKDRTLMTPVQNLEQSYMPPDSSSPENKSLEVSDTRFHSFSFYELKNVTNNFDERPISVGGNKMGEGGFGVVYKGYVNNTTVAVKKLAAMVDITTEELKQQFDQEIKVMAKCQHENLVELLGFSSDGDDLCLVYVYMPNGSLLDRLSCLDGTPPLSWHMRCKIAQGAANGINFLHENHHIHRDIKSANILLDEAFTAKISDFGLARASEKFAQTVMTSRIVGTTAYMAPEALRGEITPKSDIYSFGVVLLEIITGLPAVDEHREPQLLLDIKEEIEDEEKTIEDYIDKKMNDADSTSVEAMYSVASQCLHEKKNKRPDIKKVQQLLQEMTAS

[1] = Kinetic solubility assay (CLND), pH 6.8; type: physicochemical; conditions: aqueous buffer, kinetic from dmso stock; potassium phosphate buffer pH 6.8, 2% DMSO, 24 hours at ambient temperature
MDR1 = MDR1 (Homo sapiens (Human), UniProt P08183); assay: in vitro; conditions: MDCK-MDR1
Sequence of MDR1 (P08183 whole entry): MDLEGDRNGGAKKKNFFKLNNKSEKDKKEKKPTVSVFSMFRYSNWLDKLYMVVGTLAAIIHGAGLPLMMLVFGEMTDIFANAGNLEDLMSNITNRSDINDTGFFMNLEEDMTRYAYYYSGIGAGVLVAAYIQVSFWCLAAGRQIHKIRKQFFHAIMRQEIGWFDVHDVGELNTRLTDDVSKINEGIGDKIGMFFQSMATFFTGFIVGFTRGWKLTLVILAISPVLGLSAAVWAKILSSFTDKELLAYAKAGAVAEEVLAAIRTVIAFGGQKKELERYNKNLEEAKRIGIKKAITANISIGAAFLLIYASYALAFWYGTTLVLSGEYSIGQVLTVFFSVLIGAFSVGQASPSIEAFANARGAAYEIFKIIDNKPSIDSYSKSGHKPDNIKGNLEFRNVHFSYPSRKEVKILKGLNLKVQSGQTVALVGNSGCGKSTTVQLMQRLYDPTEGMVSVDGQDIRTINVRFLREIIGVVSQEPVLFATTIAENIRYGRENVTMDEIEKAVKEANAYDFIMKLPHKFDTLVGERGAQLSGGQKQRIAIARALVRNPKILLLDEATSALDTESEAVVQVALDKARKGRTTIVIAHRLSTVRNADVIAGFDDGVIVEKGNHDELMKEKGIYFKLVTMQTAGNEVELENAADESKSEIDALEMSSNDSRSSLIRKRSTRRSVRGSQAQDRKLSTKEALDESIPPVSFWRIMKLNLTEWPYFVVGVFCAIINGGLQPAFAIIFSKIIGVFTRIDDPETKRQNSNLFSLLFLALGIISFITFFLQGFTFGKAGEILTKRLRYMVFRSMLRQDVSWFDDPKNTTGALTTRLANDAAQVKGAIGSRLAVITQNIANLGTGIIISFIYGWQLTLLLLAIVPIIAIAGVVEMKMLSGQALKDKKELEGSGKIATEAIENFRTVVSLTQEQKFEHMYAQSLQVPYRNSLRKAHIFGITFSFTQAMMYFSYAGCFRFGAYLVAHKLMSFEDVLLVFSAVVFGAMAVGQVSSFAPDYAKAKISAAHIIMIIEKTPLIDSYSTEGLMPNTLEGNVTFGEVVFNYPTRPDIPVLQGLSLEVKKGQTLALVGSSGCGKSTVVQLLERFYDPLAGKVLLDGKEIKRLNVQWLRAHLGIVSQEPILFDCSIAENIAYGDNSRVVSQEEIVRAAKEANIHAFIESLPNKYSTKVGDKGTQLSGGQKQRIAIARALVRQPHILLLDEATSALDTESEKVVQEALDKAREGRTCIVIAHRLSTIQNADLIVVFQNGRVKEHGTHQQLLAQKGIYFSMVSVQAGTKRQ

Row | IC50 (IRAK4) [nM] | solubility kinetic at 24 h [1] [mg/mL] | efflux ratio at 120 min, 1 μM (MDR1) | SMILES
1 | 0.7 | 0.0231 (≈ 48.1 µM) | 3.9 | CC(C)Oc1cc2nc([C@@]34CC[C@@](C)(C3)OC4)cn2cc1C(=O)Nc1cccn([C@H]2C[C@@H]2F)c1=O (single isomer, unassigned) [Example 117]
2 | 0.9 | 0.0562 (≈ 117 µM) | 5.1 | CC(C)Oc1cc2nc([C@]34CC[C@](C)(C3)OC4)cn2cc1C(=O)Nc1cccn([C@@H]2C[C@H]2F)c1=O (single isomer, unassigned) [Example 118]
3 | 0.6 | 0.0276 | 12.6 | CC(C)Oc1cc2nc([C@]34CC[C@](C)(C3)OC4)cn2cc1C(=O)Nc1cccn(C2CC2F)c1=O (mixture of isomers) [Example 100, N-(1-(2-fluorocyclopropyl)-2-oxo-1,2-dihydropyridin-3-yl)-7-isopropoxy-2-((1R,4S)-1-methyl-2-oxabicyclo[2.2.1]heptan-4-yl)imidazo[1,2-a]pyridine-6-carboxamide]
4 | 0.2 | 0.0555 (≈ 115 µM) | 9 | CC[C@H](C)Oc1nc2nc(C34COC(C)(C3)C4)cn2cc1C(=O)Nc1cccn([C@H]2C[C@H]2F)c1=O (single isomer, unassigned) [Example 60]
5 | 0.1 | 0.0007 (≈ 1.52 µM) | 2 | Cc1cnc2c(NC(=O)c3cn4cc([C@@]56CC[C@@](C)(C5)OC6)nc4cc3OC(C)C)cnn2c1 (single isomer, unassigned) [Comparator 3B, reference compound]
6 | 0.6 | 0.0602 (≈ 129 µM) | 13.6 | C[C@H](CF)Oc1cc2nc(C34COC(C)(C3)C4)cn2cc1C(=O)Nc1cccn(C2CC2)c1=O [Example 29, (R)—N-(1-cyclopropyl-2-oxo-1,2-dihydropyridin-3-yl)-7-((1-fluoropropan-2-yl)oxy)-2-(1-methyl-2-oxabicyclo[2.1.1]hexan-4-yl)imidazo[1,2-a]pyridine-6-carboxamide]
7 | 0.3 | 0.0061 (≈ 13.9 µM) | 4.7 | CC(C)Oc1cc2nc([C@@H]3COCCO3)cn2cc1C(=O)Nc1cccn(C2CC2)c1=O (single isomer, unassigned) [Example 69]
8 | 0.2 | 0.0626 (≈ 134 µM) | 18.2 | C[C@@H](CF)Oc1cc2nc(C34COC(C)(C3)C4)cn2cc1C(=O)Nc1cccn(C2CC2)c1=O [Example 28, (S)—N-(1-cyclopropyl-2-oxo-1,2-dihydropyridin-3-yl)-7-((1-fluoropropan-2-yl)oxy)-2-(1-methyl-2-oxabicyclo[2.1.1]hexan-4-yl)imidazo[1,2-a]pyridine-6-carboxamide]
9 | 0.7 | 0.0897 (≈ 188 µM) | 2.1 | CC(C)Oc1cc2nc([C@@]34CC[C@@](C)(C3)OC4)cn2cc1C(=O)Nc1cccn(C2C[C@H]2C)c1=O (stereo partly drawn) [Example 98, trans-7-isopropoxy-2-((1S,4R)-1-methyl-2-oxabicyclo[2.2.1]heptan-4-yl)-N-(1-(2-methylcyclopropyl)-2-oxo-1,2-dihydropyridin-3-yl)imidazo[1,2-a]pyridine-6-carboxamide]
10 | 0.5 | 0.0085 (≈ 17.9 µM) | 3.9 | C[C@]12CC[C@](c3cn4cc(C(=O)Nc5cccn(C6CC6)c5=O)c(OC5CCC5)nc4n3)(CO1)C2 (single isomer, unassigned) [Example 17]
11 | 0.6 | 0.0628 (≈ 130 µM) | 4.9 | CC(C)Oc1c(C(=O)Nc2cccn([C@H]3C[C@H]3F)c2=O)cn2cc(C34COC(C)(C3)C4)nc2c1F (single isomer, unassigned) [Example 93]
12 | 0.7 | 0.0387 (≈ 83.3 µM) | 15.8 | CC12CC(c3cn4cc(C(=O)Nc5cccn([C@@H]6C[C@@H]6F)c5=O)c(OC5CC5)cc4n3)(CO1)C2 (racemic) [Example 105, (rac)-Cis-7-cyclopropoxy-N-(1-(2-fluorocyclopropyl)-2-oxo-1,2-dihydropyridin-3-yl)-2-(1-methyl-2-oxabicyclo[2.1.1]hexan-4-yl)imidazo[1,2-a]pyridine-6-carboxamide]
13 | 1.2 | 0.0475 (≈ 102 µM) | 1 | CC(C)Oc1cc2nc([C@@]34CC[C@@](C)(C3)OC4)cn2cc1C(=O)Nc1ccnn(C2CC2)c1=O [Example 74, N-(2-cyclopropyl-3-oxo-2,3-dihydropyridazin-4-yl)-7-isopropoxy-2-((1S,4R)-1-methyl-2-oxabicyclo[2.2.1]heptan-4-yl)imidazo[1,2-a]pyridine-6-carboxamide]
14 | 0.1 | 0.0732 (≈ 146 µM) | 21.8 | C[C@@H](Oc1cc2nc(C34COC(C)(C3)C4)cn2cc1C(=O)Nc1cccn(C2C[C@H]2F)c1=O)C(F)F (stereo partly drawn) [Example 185]
15 | 0.7 | 0.0606 (≈ 127 µM) | 1.7 | CC(C)Oc1cc2nc([C@@]34CC[C@@](C)(C3)OC4)cn2cc1C(=O)Nc1cccn([C@H]2C[C@@H]2C)c1=O (single isomer, unassigned) [Example 192]
16 | 1.3 | 0.0757 (≈ 158 µM) | 4.8 | CC[C@@H](C)Oc1cc2nc(C34COC(CF)(C3)C4)cn2cc1C(=O)Nc1cccn(C2CC2)c1=O (single isomer, unassigned) [Example 14]
17 | 0.4 | 0.0582 (≈ 130 µM) | 3.6 | COC12CC(c3cn4cc(C(=O)Nc5cccn(C6CC6)c5=O)c(OC(C)C)cc4n3)(C1)C2 [Example 62, N-(1-cyclopropyl-2-oxo-1,2-dihydropyridin-3-yl)-7-isopropoxy-2-(3-methoxybicyclo[1.1.1]pentan-1-yl)imidazo[1,2-a]pyridine-6-carboxamide]
18 | 1.7 | 0.0745 (≈ 167 µM) | 4.3 | CC12CC(c3cn4cc(C(=O)Nc5cccn(C6CC6)c5=O)c(OC5CC5)cc4n3)(CO1)C2 [Example 104, 7-cyclopropoxy-N-(1-cyclopropyl-2-oxo-1,2-dihydropyridin-3-yl)-2-(1-methyl-2-oxabicyclo[2.1.1]hexan-4-yl)imidazo[1,2-a]pyridine-6-carboxamide]
19 | 0.2 | 0.043 (≈ 92.6 µM) | 8.9 | CC12CC(c3cn4cc(C(=O)Nc5cccn([C@H]6C[C@H]6F)c5=O)c(OC5CC5)cc4n3)(CO1)C2 [Example 175, 7-cyclopropoxy-N-(1-((1S,2R)-2-fluorocyclopropyl)-2-oxo-1,2-dihydropyridin-3-yl)-2-(1-methyl-2-oxabicyclo[2.1.1]hexan-4-yl)imidazo[1,2-a]pyridine-6-carboxamide]

Row | SMILES | IC50 (IRAK4) [nM] | solubility kinetic at 24 h [1] [mg/mL] | efflux ratio at 120 min, 1 μM (MDR1)
20 | CC12CC(c3cn4cc(C(=O)Nc5cccn(C6C[C@@H]6F)c5=O)c(OC5CCC5)nc4n3)(CO1)C2 (mixture of isomers) [Example 103, (rac)-Cis-7-cyclobutoxy-N-(1-(2-fluorocyclopropyl)-2-oxo-1,2-dihydropyridin-3-yl)-2-(1-methyl-2-oxabicyclo[2.1.1]hexan-4-yl)imidazo[1,2-a]pyrimidine-6-carboxamide] | 0.4 | 0.0588 (≈ 123 µM) | 12.8
21 | CC12CC(c3cn4cc(C(=O)Nc5ccnn(C6CC6)c5=O)c(OC5CCC5)nc4n3)(CO1)C2 [Example 72, 7-cyclobutoxy-N-(2-cyclopropyl-3-oxo-2,3-dihydropyridazin-4-yl)-2-(1-methyl-2-oxabicyclo[2.1.1]hexan-4-yl)imidazo[1,2-a]pyrimidine-6-carboxamide] | 4.2 | 0.0015 (≈ 3.24 µM) | 1.7
22 | CCC(C)Oc1cc2nc([C@@]34CC[C@@](C)(C3)OC4)cn2cc1C(=O)Nc1cccn(C2CC2)c1=O (stereo partly drawn) [Example 20, 7-(sec-butoxy)-N-(1-cyclopropyl-2-oxo-1,2-dihydropyridin-3-yl)-2-((1S,4R)-1-methyl-2-oxabicyclo[2.2.1]heptan-4-yl)imidazo[1,2-a]pyridine-6-carboxamide] | 0.7 | 0.0681 (≈ 143 µM) | 2.8
23 | CC12CCC(c3cn4cc(C(=O)Nc5cccn(C6CC6)c5=O)c(OC5CCC5)cc4n3)(CC1)CO2 [Example 1, 7-cyclobutoxy-N-(1-cyclopropyl-2-oxo-1,2-dihydropyridin-3-yl)-2-(1-methyl-2-oxabicyclo[2.2.2]octan-4-yl)imidazo[1,2-a]pyridine-6-carboxamide] | 0.2 | 0.056 (≈ 115 µM) | 1.7
24 | C[C@@H]1C[C@@H]1n1cccc(NC(=O)c2cn3cc(C45COC(C)(C4)C5)nc3nc2OC2CCC2)c1=O [Example 188, 7-cyclobutoxy-2-(1-methyl-2-oxabicyclo[2.1.1]hexan-4-yl)-N-(1-((1S,2R)-2-methylcyclopropyl)-2-oxo-1,2-dihydropyridin-3-yl)imidazo[1,2-a]pyrimidine-6-carboxamide trifluoroacetate] | 0.8 | 0.0497 | 4.4
25 | CC12CCC(c3cn4cc(C(=O)Nc5cccn(C6CC6)c5=O)c(OC5CCC5)cc4n3)(CO1)C2 (stereo not drawn) [Example 23, 7-cyclobutoxy-N-(1-cyclopropyl-2-oxo-1,2-dihydropyridin-3-yl)-2-(1-methyl-2-oxabicyclo[2.2.1]heptan-4-yl)imidazo[1,2-a]pyridine-6-carboxamide] | 0.5 | 0.0619 (≈ 130 µM) | 2.8
26 | CC[C@@H](C)Oc1nc2nc([C@@]34CC[C@@](C)(C3)OC4)cn2cc1C(=O)Nc1cccn(C2CC2)c1=O [Example 48, 7-((R)-sec-butoxy)-N-(1-cyclopropyl-2-oxo-1,2-dihydropyridin-3-yl)-2-((1S,4R)-1-methyl-2-oxabicyclo[2.2.1]heptan-4-yl)imidazo[1,2-a]pyrimidine-6-carboxamide] | 0.8 | 0.0632 (≈ 132 µM) | 3.2
